In PubChem BioAssay (NCI):
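Tested at 5 concentrations; 48 h exposure; 96-well plates; endpoints linearly interpolated, else capped at highest concentration. TGI: total growth inhibition.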

What was measured:
Experiment in all cases: growth of human tumour cells (NCI), 48 h
SK-MEL-28 melanoma = system: SK-MEL-28 melanoma
SNB-19 CNS = system: SNB-19 CNS
KM12 colon = system: KM12 colon
NCI/ADR-RES ovarian = system: NCI/ADR-RES ovarian
SW-620 colon = system: SW-620 colon
SF-539 CNS = system: SF-539 CNS
EKVX NSCLC = system: EKVX NSCLC
A498 renal = system: A498 renal
SK-MEL-5 melanoma = system: SK-MEL-5 melanoma
NCI-H460 lung = system: NCI-H460 lung
HOP-62 NSCLC = system: HOP-62 NSCLC
HCT-116 colon = system: HCT-116 colon
CCRF-CEM leukemia = system: CCRF-CEM leukemia
HL-60(TB) leukemia = system: HL-60(TB) leukemia
BT-549 breast = system: BT-549 breast
ACHN renal = system: ACHN renal
DU-145 prostate = system: DU-145 prostate
MDA-MB-435 = system: MDA-MB-435
K-562 leukemia = system: K-562 leukemia
OVCAR-8 ovarian = system: OVCAR-8 ovarian
HCT-15 colon = system: HCT-15 colon
NCI-H522 lung = system: NCI-H522 lung
OVCAR-5 ovarian = system: OVCAR-5 ovarian
HOP-92 NSCLC = system: HOP-92 NSCLC
T-47D breast = system: T-47D breast
A549 NSCLC = system: A549 NSCLC
MDA-N = system: MDA-N
UO-31 renal = system: UO-31 renal
HCC-2998 colon = system: HCC-2998 colon
SR leukemia = system: SR leukemia
RPMI-8226 leukemia = system: RPMI-8226 leukemia
HS 578T breast = system: HS 578T breast
SK-MEL-2 melanoma = system: SK-MEL-2 melanoma
SN12C renal = system: SN12C renal
CAKI-1 renal = system: CAKI-1 renal
MDA-MB-231 breast = system: MDA-MB-231 breast
HT29 colon = system: HT29 colon
M14 melanoma = system: M14 melanoma
NCI-H23 lung = system: NCI-H23 lung
MCF7 breast = system: MCF7 breast
SK-OV-3 ovarian = system: SK-OV-3 ovarian
U251 CNS = system: U251 CNS
MOLT-4 leukemia = system: MOLT-4 leukemia
SF-268 CNS = system: SF-268 CNS
UACC-62 melanoma = system: UACC-62 melanoma
RXF 393 renal = system: RXF 393 renal
786-0 renal = system: 786-0 renal
OVCAR-3 ovarian = system: OVCAR-3 ovarian
TK-10 renal = system: TK-10 renal
IGROV1 ovarian = system: IGROV1 ovarian
OVCAR-4 ovarian = system: OVCAR-4 ovarian
MALME-3M melanoma = system: MALME-3M melanoma
SNB-75 CNS = system: SNB-75 CNS
LOX IMVI melanoma = system: LOX IMVI melanoma
SF-295 CNS = system: SF-295 CNS
COLO 205 colon = system: COLO 205 colon
PC-3 prostate = system: PC-3 prostate
NCI-H226 lung = system: NCI-H226 lung
UACC-257 melanoma = system: UACC-257 melanoma

Compound: COC(=O)CCC(=O)NC1=C(Nc2ccccc2)C(=O)c2ccccc2C1=O
- TGI (SK-MEL-28 melanoma): 17.7 µM
- TGI (SNB-19 CNS): 31.4 µM
- TGI (KM12 colon): 32.5 µM
- TGI (NCI/ADR-RES ovarian): 39.9 µM
- TGI (SW-620 colon): 30.6 µM
- TGI (SF-539 CNS): 29.1 µM
- TGI (EKVX NSCLC): 34.2 µM
- TGI (A498 renal): 28.6 µM
- TGI (SK-MEL-5 melanoma): 3.3 µM
- TGI (NCI-H460 lung): 31.9 µM
- TGI (HOP-62 NSCLC): 32.1 µM
- TGI (HCT-116 colon): 23 µM
- TGI (CCRF-CEM leukemia): 42.9 µM
- TGI (HL-60(TB) leukemia): 13.5 µM
- TGI (BT-549 breast): 23.4 µM
- TGI (ACHN renal): 29.5 µM
- TGI (DU-145 prostate): 23.2 µM
- TGI (MDA-MB-435): 3.45 µM
- TGI (K-562 leukemia): > 57.6 µM
- TGI (OVCAR-8 ovarian): 47.4 µM
- TGI (HCT-15 colon): 27.6 µM
- TGI (NCI-H522 lung): 29.2 µM
- TGI (OVCAR-5 ovarian): 19.7 µM
- TGI (HOP-92 NSCLC): 31.7 µM
- TGI (T-47D breast): 32.8 µM
- TGI (A549 NSCLC): 37 µM
- TGI (MDA-N): 3.59 µM
- TGI (UO-31 renal): 32.2 µM
- TGI (HCC-2998 colon): 37.9 µM
- TGI (SR leukemia): 56.7 µM
- TGI (RPMI-8226 leukemia): 52.3 µM
- TGI (HS 578T breast): 32.7 µM
- TGI (SK-MEL-2 melanoma): 16.4 µM
- TGI (SN12C renal): 28.9 µM
- TGI (CAKI-1 renal): 27.5 µM
- TGI (MDA-MB-231 breast): 30.1 µM
- TGI (HT29 colon): 35.7 µM
- TGI (M14 melanoma): 7.27 µM
- TGI (NCI-H23 lung): 12.9 µM
- TGI (MCF7 breast): 10.4 µM
- TGI (SK-OV-3 ovarian): 30.9 µM
- TGI (U251 CNS): 24.2 µM
- TGI (MOLT-4 leukemia): 38.9 µM
- TGI (SF-268 CNS): 51.5 µM
- TGI (UACC-62 melanoma): 7.55 µM
- TGI (RXF 393 renal): 21.4 µM
- TGI (786-0 renal): 25.4 µM
- TGI (OVCAR-3 ovarian): 10.4 µM
- TGI (TK-10 renal): 41.6 µM
- TGI (IGROV1 ovarian): 26 µM
- TGI (OVCAR-4 ovarian): 22.9 µM
- TGI (MALME-3M melanoma): 5.61 µM
- TGI (SNB-75 CNS): 33.2 µM
- TGI (LOX IMVI melanoma): 13.9 µM
- TGI (SF-295 CNS): 29.9 µM
- TGI (COLO 205 colon): 35.3 µM
- TGI (PC-3 prostate): 65.2 µM
- TGI (NCI-H226 lung): 28.6 µM
- TGI (UACC-257 melanoma): 9.76 µM

Compound: CC(C)(C)c1cc(OCc2nnc3sc(Cc4ccccc4)nn23)c(Cl)cc1OCc1nnc2sc(Cc3ccccc3)nn12
- TGI (SK-MEL-28 melanoma): > 100 µM
- TGI (SNB-19 CNS): > 100 µM
- TGI (KM12 colon): 57.2 µM
- TGI (NCI/ADR-RES ovarian): > 100 µM
- TGI (SW-620 colon): > 100 µM
- TGI (SF-539 CNS): > 100 µM
- TGI (EKVX NSCLC): > 100 µM
- TGI (A498 renal): 67.2 µM
- TGI (SK-MEL-5 melanoma): 31.7 µM
- TGI (NCI-H460 lung): 42.5 µM
- TGI (HOP-62 NSCLC): > 100 µM
- TGI (HCT-116 colon): 75.2 µM
- TGI (CCRF-CEM leukemia): 8.97 µM
- TGI (HL-60(TB) leukemia): 58.3 µM
- TGI (BT-549 breast): 96.9 µM
- TGI (ACHN renal): 68 µM
- TGI (DU-145 prostate): > 100 µM
- TGI (MDA-MB-435): 82.9 µM
- TGI (K-562 leukemia): > 100 µM
- TGI (OVCAR-8 ovarian): 73.6 µM
- TGI (HCT-15 colon): > 100 µM
- TGI (NCI-H522 lung): > 100 µM
- TGI (OVCAR-5 ovarian): > 100 µM
- TGI (HOP-92 NSCLC): 35.4 µM
- TGI (T-47D breast): 38.5 µM
- TGI (A549 NSCLC): > 100 µM
- TGI (MDA-N): > 100 µM
- TGI (UO-31 renal): > 100 µM
- TGI (HCC-2998 colon): 20.9 µM
- TGI (SR leukemia): 70.6 µM
- TGI (RPMI-8226 leukemia): > 100 µM
- TGI (HS 578T breast): > 100 µM
- TGI (SK-MEL-2 melanoma): > 100 µM
- TGI (SN12C renal): > 100 µM
- TGI (CAKI-1 renal): > 100 µM
- TGI (MDA-MB-231 breast): 39 µM
- TGI (HT29 colon): 57.8 µM
- TGI (M14 melanoma): 88 µM
- TGI (NCI-H23 lung): > 100 µM
- TGI (MCF7 breast): 37.2 µM
- TGI (SK-OV-3 ovarian): > 100 µM
- TGI (U251 CNS): 34.6 µM
- TGI (MOLT-4 leukemia): > 100 µM
- TGI (SF-268 CNS): > 100 µM
- TGI (UACC-62 melanoma): 49.8 µM
- TGI (RXF 393 renal): 38.8 µM
- TGI (786-0 renal): 46.7 µM
- TGI (OVCAR-3 ovarian): > 100 µM
- TGI (TK-10 renal): 82.9 µM
- TGI (IGROV1 ovarian): 52.4 µM
- TGI (OVCAR-4 ovarian): > 100 µM
- TGI (MALME-3M melanoma): > 100 µM
- TGI (SNB-75 CNS): 84.8 µM
- TGI (LOX IMVI melanoma): > 100 µM
- TGI (SF-295 CNS): > 100 µM
- TGI (COLO 205 colon): > 100 µM
- TGI (PC-3 prostate): > 100 µM
- TGI (NCI-H226 lung): > 100 µM
- TGI (UACC-257 melanoma): 63.5 µM
